Measurements as given in patent publication US9782424B2, “Synergistic combination comprising avermectins and a NSAID for tumor inhibition” (Ectin Research AB, priority 2011, dated 2017).

How the values were obtained:
Type in all cases: cell-based, human
[1] = test system: urinary bladder cell line (UM-UC-3); assay: XTT-assay proliferation rate, urinary bladder cell line; conditions: UM-UC-3 (Table 3), no IVM
Protocol: (§1) Commercially available human tumor cell lines were purchased from ATCC (ATCC/LGC-standards, Borás, Sweden). […] Briefly, ampoules of frozen cells were thawed by submerging into a 37° C. water bath for 45 s. […] With supernatant discarded, cell pellets were further resuspended with 5 ml complete medium into 25 cm^2 cell culture flasks (Cell+, Sarstedt, Nümbrecht, Germany). Tumor cells were cultured until sub-confluence and further sub-cultured with Trypsin (0.5%), EDTA (0.2%) solution (T4174, TE-10x, Sigma) in sterile sodium chloride. Culture media was changed two-three times a week. Culture flasks (Cell+, Sarstedt, Nümbrecht, Germany) and culture plates (Falcon/BD, Franklin Lakes, N.J., USA) were used for experimental set-ups. Cells were regularly monitored using an inverted microscope connected to a digital photo equipment (Axiovert 25 and Axiovision, Zeiss, Carl Zeiss AG, Germany) (FIG. 1). Described culture techniques and equipment have been used extensively in the laboratory
(§2) The proliferation rates of the different human tumor cell lines were studied using a method based on the conversion of a sodium salt (XTT-assay, Sigma) into a stable orange color that could be analyzed in a spectrophotometer. […] The color change was measured using a 96-well plate reader with software to calculate the absorbance at 450 nm (V-max/Softmax Pro, Molecular Devices, USA).
(§3) Increasing concentrations of substance ivermectin was added with an 8-channel pipette (Titertek, Kem-En-Tec, Taastrup, Denmark) together with sterile pipette tips (Molecular Bioproducts, San Diego, Calif., USA). Cell cultures including active substances were incubated for 24 hours (and 96 hours). Untreated wells including culture medium only served as untreated controls. The XTT-assay substrate was added and after gentle agitation using a micro plate shaker, absorbencies at 450 and 650 nm were measured. Levels from medium were subtracted and compared with control wells, using culture medium only.

[2] = test system: colorectal cell line (Colo205); assay: XTT-assay proliferation rate, colorectal cell line Colo205; conditions: Colo205 (Table 4), no IVM
Text: Commercially available human tumor cell lines were purchased from […], Borás, Sweden). Cell lines from urinary bladder (UM-UC-3, #CRL-1749), colorectal carcinoma (Colo205, #CCL-222 and HT29, #HTB-38), prostate carcinoma (LNCaP, #CRL-1740) and breast carcinoma (ZR-75-1, #CRL-1500) were purchased and stored in liquid nitrogen. […] Tumor cell lines were handled aseptically using a laminar airflow (LAF) bench (Holten 2448, Ninolab, Sweden) and stored in a liquid nitrogen tank and were initiated in culture as previously described (Falk P. Experimental models of the peritoneal environment: Effects of TGF-beta and Hyaluronan. Göteborg: University of Gothenburg; 2008). Briefly, ampoules of frozen cells were thawed by submerging into a 37° C. water bath for 45 s. […] Culture media was changed two-three times a week. Culture flasks (Cell+, Sarstedt, Nümbrecht, Germany) and culture plates (Falcon/BD, Franklin Lakes, N.J., USA) were used for experimental set-ups. […] Described culture techniques and equipment have been used extensively in the laboratory The proliferation rates of the different human tumor cell lines were studied using a method based on the conversion of a sodium salt (XTT-assay, Sigma) into a stable orange color that could be analyzed in a spectrophotometer. The color change is proportional to the mitochondrial dehydrogenase activity resulting in an effective technique for measuring cell toxicity (Roehm N W, Rodgers […], Glasebrook A L. An improved colorimetric assay for cell proliferation and viability utilizing the tetrazolium salt XTT. […] The color change was measured using a 96-well plate reader with software to calculate the absorbance at 450 nm (V-max/Softmax Pro, Molecular Devices, USA). […] RPMI 1640 and EMEM without phenol red was used during the experiments to reduce the red color background signal in the XTT-assay. […] Untreated wells including culture medium only served as untreated controls. The XTT-assay substrate was added and after gentle agitation using a micro plate shaker, absorbencies at 450 and 650 nm were measured. Levels from medium were subtracted and compared with control wells, using culture medium only.

[3] = test system: breast cell line (ZR-75-1); assay: XTT-assay proliferation rate, breast cell line; conditions: ZR-75-1 (Table 6), no IVM
Protocol: as §1, §2, §3

[4] = test system: colorectal cells (Colo205); assay: Morphology of cultured tumor cells, Colo205; conditions: ivermectin 10 μM alone, albendazole 20 and 40 μM alone (FIG. 11)
Protocol: as §1
(§4) The effect of Ivermectin, selamectin, abamectin alone, or in combination with ketoconazole, albendazole, ibuprofen, diclofenac and celecoxib on the morphology of cultured human tumor cells was studied. The effect of ivermectin in the presence of increasing concentration of ivermectin was also investigated. Cells were grown into sub-confluence and then sub-cultured into 12 and 24 well plates (Sarstedt, Falcon/BD) for morphology studies, or in 96 well plates (Sarstedt, Falcon/BD) for proliferation studies.

[5] = test system: prostatic cell line (LNCaP); assay: XTT-assay proliferation rate, prostatic cell line; conditions: LNCaP (Table 5); single agent 10 μmol/L, no IVM
Protocol: as §1, §2, §3

[6] = test system: prostate cells (LNCaP); assay: Morphology of cultured tumor cells, LNCaP
Protocol: as §1, §4

[7] = test system: prostatic cell line (LNCaP); assay: XTT-assay proliferation rate, prostatic cell line; conditions: for Proliferation rate compared to untreated control: LNCaP (Table 5), no IVM

Structure (SMILES) | Proliferation rate compared to untreated medium control ([1]; single agent 10 μmol/L) [%] | Proliferation rate compared to untreated medium control ([1]; single agent 20 μmol/L) [%] | Proliferation rate compared to untreated medium control ([1]; single agent 40 μmol/L) [%] | Proliferation rate compared to medium control ([2]; single agent 10 μmol/L) [%] | Proliferation rate compared to medium control ([2]; single agent 20 μmol/L) [%] | Proliferation rate compared to medium control ([2]; single agent 40 μmol/L) [%] | Proliferation rate compared to untreated control ([3]; single agent 10 μmol/L) [%] | Proliferation rate compared to untreated control ([3]; single agent 20 μmol/L) [%] | Proliferation rate compared to untreated control ([3]; single agent 40 μmol/L) [%] | Decreased growth of cells, substances tested alone [4] | Proliferation rate compared to untreated control [5] [%] | Effect on morphology ([6]; ketoconazole 10 μM) | Effect on morphology ([6]; ketoconazole 20 and 40 μM) | Proliferation rate compared to untreated control ([7]; single agent 10 μmol/L, listed as Ket) [%] | Proliferation rate compared to untreated control ([7]; single agent 20 μmol/L) [%] | Proliferation rate compared to untreated control ([7]; single agent 40 μmol/L) [%] | Effect on proliferation rate ([7]; LNCaP, ketoconazole alone at 20 and 40 μM)
CC(C)Cc1ccc(C(C)C(=O)O)cc1 (racemic) [ibuprofen, (RS)-2-(4-(2-methylpropyl)phenyl)propanoic acid] | 103 ± 2 | 106 ± 2 | 99 ± 3 | 90.1 ± 8.8 | 92.2 ± 8.2 | 90.8 ± 6.3 | 115.2 ± 3.8 | 116.2 ± 1.9 | 108.7 ± 6.7 |  |  |  |  |  |  |  | 
CCCSc1ccc2nc(NC(=O)OC)[nH]c2c1 [albendazole, Methyl[6-(propylthio)-1H-benzoimidazol-2-yl]carbamate] |  |  |  |  |  |  |  |  |  | not seen |  |  |  |  |  |  | 
Cc1ccc(-c2cc(C(F)(F)F)nn2-c2ccc(S(N)(=O)=O)cc2)cc1 [celecoxib, 4-[5-(4-methylphenyl)-3-(trifluoromethyl)pyrazol-1-yl]benzenesulfonamide] | 103 ± 9 | 100 ± 6 | 106 ± 1 | 98.7 ± 15.8 | 94.8 ± 2.5 | 94.5 ± 6.6 | 116.5 ± 4.4 | 110.6 ± 13.3 | 95.2 ± 4.9 |  |  |  |  |  |  |  | 
CC(=O)N1CCN(c2ccc(OC[C@H]3CO[C@](Cn4ccnc4)(c4ccc(Cl)cc4Cl)O3)cc2)CC1 [ketoconazole, 1-[4-(4-{[(2R,4S)-2-(2,4-Dichlorophenyl)-2-(1H-imidazol-1-ylmethyl)-1,3-dioxolan-4-yl]methoxy}phenyl)piperazin-1-yl]ethan-1-one] | 95 ± 6 | 99 ± 6 | 103 ± 2 | 94.8 ± 6.3 | 93.4 ± 8.1 | 72.1 ± 15.5 |  |  |  |  | 104.6±3.0 | not microscopically affected | did affect morphology | 104.6 ± 3.0 | 76.3 ± 2.3 | 68.0 ± 1.8 | decreased the proliferation rate
